According to patent US20170136031A1, “PLATINUM COMPLEXES AS ANTICANCER AGENTS” (KING FAHD UNIVERSITY OF PETROLEUM AND MINERALS, priority 2014, published 2017):

How the values were obtained:
Type in all cases: cell-based
[1] = system: A549 (human lung carcinoma) cell line; assay: In vitro cytotoxicity against A549 cell line; conditions: from curves of complex concentration vs percentage viability
[2] = system: MCF7 (human breast cancer) cell line; assay: In vitro cytotoxicity against MCF7 cell line; conditions: from curves of complex concentration vs percentage viability
[3] = system: HCT15 (human colon adenocarcinoma) cell line; assay: In vitro cytotoxicity against HCT15 cell line; conditions: from curves of complex concentration vs percentage viability
[4] = system: HeLa (human cervical cancer) cell line; assay: In vitro cytotoxicity against HeLa cell line; conditions: read-out: IC50 values against HeLa cell line (unit inferred)

N.N.[Cl][Pt][Cl] [Cisplatin, cisplatin]
IC50 [1]: 41.6 µM | IC50 [2]: 22.4 µM | IC50 [3]: 29.5 µM | IC50 [4]: 19.4 µM
